# Laboratory results reported in the OPERA property sets (Mansouri et al. 2018).
# Details: 25 °C
row,SMILES,solubility
1,CCCCC(N)C(=O)O (racemic),88.5 mM
2,C[C@]12CCc3c(ccc4cc(O)ccc34)[C@@H]1CCC2=O,0.00571 mM
3,C=CCC(C)C,0.57 mM
4,CCCN(CCC)C(=O)SCC,1.98 mM
5,Cc1c[nH]c(=S)[nH]c1=O,3.58 mM
6,C#C[C@]1(OC(C)=O)CC[C@H]2[C@@H]3CCC4=CC(=O)CC[C@@H]4[C@H]3CC[C@@]21C,0.0161 mM
7,COC(=O)C(=O)OC,511 mM
8,CCC1(C2=C[C@H]3CC[C@@H](C2)C3)C(=O)NC(=O)NC1=O,1.7 mM
9,Clc1ccc(-c2ccc(Cl)c(Cl)c2)cc1Cl,1.95e-06 mM
10,CN(C)C(=O)Nc1ccccc1,24.5 mM
11,NC(=O)c1ccccc1O,15 mM
12,O=C(O)c1cc(O)c(O)c(OC(=O)c2cc(O)c(O)c(O)c2)c1,1.55 mM
13,CCCCCBr,0.841 mM
14,CC(=O)C(C)(C)C,190 mM
15,Clc1cc(-c2ccccc2)c(Cl)c(Cl)c1Cl,4.8e-05 mM
16,CCC1NC(=O)c2cc(S(N)(=O)=O)c(Cl)cc2N1 (stereo unspecified),0.518 mM
17,CC(=O)OCC(=O)[C@@]1(O)CC[C@H]2[C@@H]3CCC4=CC(=O)CC[C@]4(C)[C@H]3C(=O)C[C@@]21C,0.0497 mM
18,CCCC(C)CC (stereo unspecified),0.0494 mM
19,CCC[C@@H](O)CC,158 mM
20,CCCCCCCCCC,0.000365 mM
21,c1ccc2c(c1)Cc1cc3ccccc3cc1-2,1.1e-05 mM
22,CCCCCCOC(C)=O,3.54 mM

row,SMILES,solubility
1,C=CCCCCC,0.185 mM
2,CC(C)CCC(C)(C)C,0.00897 mM
3,c1cnc2c(c1)ccc1cccnc12,14.9 mM
4,C=CCC1(C(C)C)C(=O)NC(=O)NC1=O,19.4 mM
5,COc1ccc2c(c1)c(CC(=O)O)c(C)n2C(=O)c1ccc(Cl)cc1,0.00262 mM
6,O=C(O)CCCCCCC(=O)O,67.9 mM
7,C(=C\c1ccccc1)/CN1CCN(C(c2ccccc2)c2ccccc2)CC1,2.04 mM
8,CCCC(C(=O)O)C(=O)O,4790 mM
9,C=CCc1ccc(OC)cc1,1.2 mM
10,O=C(Nc1ccccc1)c1ccccc1O,0.258 mM
11,COP(=O)(OC)OC,3570 mM
12,COC(C)C,877 mM
13,CCCCCCC,0.0339 mM
14,COc1cc(C=O)ccc1O,72.3 mM
15,O=C(O)c1ccc([N+](=O)[O-])c([N+](=O)[O-])c1,31.6 mM
16,CCCCCCCI,0.0155 mM
17,CCCCCO,250 mM
18,Clc1cccc(Cl)c1-c1c(Cl)cccc1Cl,4.08e-05 mM
19,CCC(C)C(C)C (stereo unspecified),0.0524 mM
20,CCCOC(C)C,46 mM
21,Clc1ccc(-c2c(Cl)cc(Cl)cc2Cl)cc1,0.000312 mM
22,Cc1ccccc1O,239 mM

row,SMILES,solubility
1,ClC1=C(Cl)[C@]2(Cl)[C@H]3[C@H]([C@@H]4C=C[C@H]3C4)[C@@]1(Cl)C2(Cl)Cl (racemic),4.66e-05 mM
2,C=CCCBr,5.66 mM
3,O=C(O)c1cc(=O)cc(C(=O)O)o1,77.7 mM
4,OC(c1ccccc1)c1ccccc1,2.82 mM
5,CCCCCCCC=O,4.37 mM
6,Nc1ccc(-c2ccc(N)cc2)cc1,1.75 mM
7,O=C1OCc2ccc([N+](=O)[O-])cc21,2.23 mM
8,CC(C(=O)O)C(=O)O,5750 mM
9,C1CCCCCC1,0.306 mM
10,Fc1ccccc1Br,2.01 mM
11,Fc1ccccc1CCl,2.88 mM
12,CCSCCSP(=S)(OC)OC,0.812 mM
13,CCC(N)C(=O)O (stereo unspecified),2050 mM
14,CCc1cccs1,2.6 mM
15,O=C(O)c1ccccc1[N+](=O)[O-],47 mM
16,O=C(O)c1cccc(F)c1,10.7 mM
17,CCC(O)(CC)CC,145 mM
18,CCC(C)(C)C,0.214 mM
19,Clc1ccccc1-c1c(Cl)cc(Cl)c(Cl)c1Cl,3.68e-05 mM
20,O=C1CSC(=S)N1,16.9 mM
21,Clc1cc(Cl)c(Cl)c(-c2c(Cl)c(Cl)cc(Cl)c2Cl)c1Cl,3.42e-07 mM
22,Cc1cccc2sc3nncn3c12,8.45 mM

# Same assay, conditions: 27 °C
row,SMILES,solubility
1,Cc1c(C)c2c3ccccc3ccc2c2ccccc12,9.75e-05 mM

# Same assay, conditions: 28 °C
row,SMILES,solubility
1,CCOC(=O)[C@H](Cc1ccccc1)NC(C)=O,17.6 mM

# Same assay, conditions: 30 °C
row,SMILES,solubility
1,CC1=CC(=O)c2ccccc2C1=O,0.929 mM
2,COC(=O)c1ccccc1O,48.6 mM
3,CC1OC(C)OC(C)O1 (stereo unspecified),847 mM
4,Cc1ccc(S(=O)(=O)NC(=O)NN2CCCCCC2)cc1,0.21 mM
5,CC(C)CCC[C@@H](C)[C@H]1CC[C@H]2[C@@H]3CC=C4C[C@@H](O)CC[C@]4(C)[C@H]3CC[C@]12C,0.000246 mM
6,CCCCn1c(=O)c2c(ncn2C)n(C)c1=O,23.7 mM
7,COC(=O)[C@H]1[C@H]2C[C@@H]3c4[nH]c5cc(OC)ccc5c4CCN3C[C@H]2C[C@@H](OC(=O)c2cc(OC)c(OC)c(OC)c2)[C@@H]1OC,0.12 mM
8,O=C(O)CCCCCCCCCCBr,0.2 mM
